Assay results reported in patent publication US6894061B2, “Substituted dihydrophenanthridinesulfonamides” (Wyeth, priority 2002, dated 2005).
Read-outs that look alike come from different tables or passages of the source.

Experiments:
IL-6 = IL-6 test procedure (IL-6 ELISA of media) in Ad5-wt-ERα infected HAECT-1 cells; type: cell-based, human; conditions: for Emax: read-out: Interleukin-6 Efficacy (%); for IC50: read-out: Interleukin-6 IC50
Experimental: After four hours, cells were washed with EBM-BSA and incubated overnight in the same medium. Following overnight incubation, cells were washed with EBM-BSA and infected for 2 hours with 6 mL of a 1:10 dilution of Ad5-3x(NFκB).Luc virus (Adenovirus luciferase expression vector driven by 3 repeats of the MHC NFκb site 5′ to the thymidine kinase promoter) in EBM-BSA. After two hours, cells were washed and incubated at 34° C. for 1 hour. […] Control (no ER infection) cells were processed as above without Ad5-wt-hERα virus infection.
ERα infected HAECT-1 cells or control cells were thawed, diluted 42× in warm EBM-BSA, plated into 96-well plates at 0.1 mL/well and incubated for 4 hours at 34° C. Test compounds were added to the cells as 2× stocks in EBM-BSA containing 2 ng/mL IL-1β (R&D Systems) and the 96-well plates were returned to the incubator (34° C.). After 15-20 hours, 100 μL aliquots of media were removed from the cells and assayed for IL-6 content using a BioSource human IL-6 ELISA Kit. Cells were subsequently washed with 300 μL of Dulbecco's phosphate buffered saline and lysed in 50 μL of Cell Culture Lysis Reagent (Promega). Luciferase was determined on a Wallac Victor^2 Luminometer (Gaithersburg, Md.) using 10 μL of lysate and mixing with 100 μL of Promega Luciferase Assay reagent. Creatine kinase was determined from the rate of increase in A340 following addition of 100 μL of CK assay reagent (Sigma, cat. No 47-10) to the remainder of the cell lysate.
For IC50 and EC50 calculations, mean IL-6, luciferase or CK values versus log10 of the compound concentration were fitted to a four parameter logistic equation. The IC50/EC50 value, ‘Hill slope’, upper and lower limits of the curve were iteratively estimated.

creatine kinase = assay: Creatine kinase (CK) test procedure in Ad5-wt-ERα infected HAECT-1 cells; type: cell-based, human; conditions: Ad5-wt-ERα infected HAECT-1 cells; for Emax / Emax at 10 µM / EC50: Homo sapiens, HAECT1; for Emax / Emax at 10 µM: read-out: Creatin Kinase Efficacy (%); for EC50: read-out: Creatin Kinase EC50
ER/NF-κB = ER/NF-κB luciferase reporter in Ad5-wt-ERα infected HAECT-1 cells; type: cell-based, human; conditions: Homo sapiens, HAECT1, IL-1β; for Emax: read-out: ER/NFκB Efficacy (%)*; for IC50: read-out: ER/NFκB IC50

| SMILES | Emax (ER/NF-κB) [%] | IC50 (ER/NF-κB) [nM] | melting point [°C] | Emax at 10 µM (creatine kinase) [%] | other results |
| --- | --- | --- | --- | --- | --- |
| C[C@H]1c2cc(F)ccc2-c2ccc(F)cc2N1S(=O)(=O)c1cccc(O)c1 (single isomer, unassigned) [Example 102] | – | – | – | – | Emax (IL-6; Homo sapiens, HAECT1, IL-1β): 156%; IC50 (IL-6; Homo sapiens, HAECT1, IL-1β): 5.4 nM |
| C[C@@H]1c2cc(F)ccc2-c2ccc(F)cc2N1S(=O)(=O)c1ccc(O)cc1 (single isomer, unassigned) [Example 99] | – | – | – | – | Emax (IL-6; Homo sapiens, HAECT1, IL-1β): 139%; IC50 (IL-6; Homo sapiens, HAECT1, IL-1β): 341 nM |
| C[C@@H]1c2cc(F)ccc2-c2ccc(F)cc2N1S(=O)(=O)c1ccc(O)cc1O (single isomer, unassigned) [Example 104] | – | – | – | – | Emax (IL-6; Homo sapiens, HAECT1, IL-1β): 43%; IC50 (IL-6; Homo sapiens, HAECT1, IL-1β): 171 nM; Emax (creatine kinase): 9% |
| CC1c2ccc(F)cc2-c2ccc(F)cc2N1S(=O)(=O)c1ccc(O)cc1 (centres unmarked) [Example 114, 4-[(3,9-Difluoro-6-mthylphenanthridin-5(6H)-yl)sulfonyl]ph nol] | – | – | – | – | Interleukin-6 Efficacy (%) (IL-6; IL-1β): 98%; IC50 (IL-6; IL-1β): 78 nM; Creatin Kinase Efficacy (%) (creatine kinase): 23% |
| C[C@H]1c2ccccc2-c2ccc(Cl)cc2N1S(=O)(=O)c1cccc(O)c1 [Example 120, 3-{[(6S)-3-Chloro-6-mthylphenanthridin-5(6H)-yl]sulfonyl}ph nol] | – | – | – | – | Interleukin-6 Efficacy (%) (IL-6; IL-1β): 153%; IC50 (IL-6; IL-1β): 6 nM; Creatin Kinase Efficacy (%) (creatine kinase): 10% |
| CCC1c2ccccc2-c2cc(-c3cccc4c3oc3ccccc34)ccc2N1S(=O)(=O)c1ccc(O)cc1 (centres unmarked) [Example 31, 4-[(2-Dibenzo[b,d]furan-4-yl-6-ethylphenanthridin-5(6H)-yl)sulfonyl]phenol] | 108 | 254 | 218 to 220 | < 35 | – |
| Cc1cc(S(=O)(=O)N2c3ccccc3-c3cccc(O)c3C2C)ccc1O (centres unmarked) [Example 38, 5-[(4-Hydroxy-3-methylphenyl)sulfonyl]-6-methyl-5,6-dihydrophenanthridin-7-ol] | – | > 10000 | 258 | < 35 | – |
| CCC1c2cc(F)ccc2-c2cc(Br)ccc2N1S(=O)(=O)c1ccc(O)cc1 (centres unmarked) [Example 44, 4-[(2-Bromo-6-ethyl-8-fluorophenanthridin-5(6H)-yl)sulfonyl]phenol] | 94 | 85 | 220 to 221 | < 35 | – |
| CC1c2ccccc2-c2ccccc2N1S(=O)(=O)c1ccc(O)c(F)c1 (centres unmarked) [Example 56, 2-Fluoro-4-[(6-methylphenanthridin-5(6H)-yl)sulfonyl]phenol] | 100 | 1440 | 172 to 174 | – | EC50 (creatine kinase): 750 nM; Emax (creatine kinase): 34% |
| CC1c2ccccc2-c2ccccc2N1S(=O)(=O)c1ccc(O)c(O)c1 (centres unmarked) [Example 23, 4-[(6-Methylphenanthridin-5(6H)-yl)sulfonyl]benzene-1,2-diol] | – | > 10000 | 163 to 165 | < 35 | – |
| CCC(=O)Oc1ccc(S(=O)(=O)N2c3ccccc3-c3ccc(F)cc3C2CC)cc1 (centres unmarked) [Example 54, 4-[(6-Ethyl-8-fluorophenanthridin-5(6H)-yl)sulfonyl]phenyl propionate] | 87 | 423 | 111 to 112 | – | EC50 (creatine kinase): 839 nM; Emax (creatine kinase): 24% |
| C[C@H]1c2ccccc2-c2ccccc2N1S(=O)(=O)c1ccc(O)cc1 (single isomer, unassigned) [Example 2] | 103 | 40 | 176 to 178 | – | EC50 (creatine kinase): 420 nM; Emax (creatine kinase): 28% |
| CC(C)(C)[C@@H]1c2ccccc2-c2ccccc2N1S(=O)(=O)c1ccc(O)cc1 [Example 15, 4-{[(R)-6-tert-Butylphenanthridin-5(6H)-yl]sulfonyl}phenol] | 99 | 16 | 187 to 189 | < 35 | – |
| CC1c2cc(Cl)ccc2-c2cc(Br)ccc2N1S(=O)(=O)c1ccc(O)cc1 (centres unmarked) [Example 62, 4-[(2-Bromo-8-chloro-6-methylphenanthridin-5(6H)-yl)sulfonyl]phenol] | 90 | 120 | 213 to 215 | < 35 | – |
| CCC1c2ccc(C)cc2-c2ccccc2N1S(=O)(=O)c1ccc(O)cc1 (centres unmarked) [Example 43, 4-[(6-Ethyl-9-methylphenanthridin-5(6H)-yl)sulfonyl]phenol] | – | > 10000 | 167 to 170 | < 35 | – |
| CCCCC1c2ccccc2-c2cc(Br)ccc2N1S(=O)(=O)c1ccc(O)cc1 (centres unmarked) [Example 8, 4-[(2-Bromo-6-butylphenanthridin-5(6H)-yl)sulfonyl]phenol] | 89 | 672 | 178 to 180 | < 35 | – |
| CC[C@@H](C)[C@H]1c2ccccc2-c2ccccc2N1S(=O)(=O)c1ccc(O)cc1 (relative stereo) [Example 22, 4-{[(S*)-6-[(R*)-1-methylpropyl]phenanthridin-5(6H)-yl]sulfonyl}phenol] | 96 | 163 | 115 to 118 | < 35 | – |
| O=S(=O)(c1ccc(O)c(Br)c1)N1c2ccc(Br)cc2-c2ccccc2C1c1ccccc1 (centres unmarked) [Example 13, 2-Bromo-4-[(2-bromo-6-phenylphenanthridin-5(6H)-yl)sulfonyl]phenol] | – | > 10000 | 237 to 239 | < 35 | – |
| CC1c2cc(F)ccc2-c2ccccc2N1S(=O)(=O)c1cccc(O)c1 (centres unmarked) [Example 48, 3-[(8-fluoro-6-methylphenanthridin-5(6H)-yl)sulfonyl]phenol] | 107 | 525 | 161 | < 35 | – |
| CCC1c2cc(F)ccc2-c2cc(C)ccc2N1S(=O)(=O)c1ccc(O)cc1 (centres unmarked) [Example 51, 4-[(6-Ethyl-8-fluoro-2-methylphenanthridin-5(6H)-yl)sulfonyl]phenol] | 106 | 56 | 197 to 200 | – | EC50 (creatine kinase): 77 nM; Emax (creatine kinase): 27% |
| C[C@@H]1c2cc(F)ccc2-c2ccc(F)cc2N1S(=O)(=O)c1cccc(O)c1 (single isomer, unassigned) [Example 101] | – | – | – | – | Emax (IL-6; Homo sapiens, HAECT1, IL-1β): 74%; IC50 (IL-6; Homo sapiens, HAECT1, IL-1β): 1280 nM |
| C[C@H]1c2cc(F)ccc2-c2ccc(F)cc2N1S(=O)(=O)c1ccc(O)cc1 (single isomer, unassigned) [Example 100] | – | – | – | – | Emax (IL-6; Homo sapiens, HAECT1, IL-1β): 196%; IC50 (IL-6; Homo sapiens, HAECT1, IL-1β): 6.9 nM |
| O=S(=O)(c1ccc(O)cc1)N1c2ccccc2-c2ccccc2[C@@H]1c1ccccc1 (single isomer, unassigned) [Example 11] | 115 | 168 | 210 to 212 | – | EC50 (creatine kinase): 117 nM; Emax (creatine kinase): 37% |
| CCC1c2c(C)cccc2-c2ccccc2N1S(=O)(=O)c1ccc(O)cc1 (centres unmarked) [Example 42, 4-[(6-ethyl-7-methylphenanthridin-5(6H)-yl)sulfonyl]phenol] | 99 | 83 | 167 to 169 | < 35 | – |
| CC1c2cc(F)ccc2-c2ccccc2N1S(=O)(=O)c1ccc(O)cc1 (centres unmarked) [Example 32, 4-[(8-Fluoro-6-methylphenanthridin-5(6H)-yl)sulfonyl]phenol] | 96 | 96 | 188 | – | EC50 (creatine kinase): 302 nM; Emax (creatine kinase): 26% |
| CC1c2cc(F)ccc2-c2cc(Br)ccc2N1S(=O)(=O)c1ccc(O)cc1 (centres unmarked) [Example 45, 4-[(2-Bromo-8-fluoro-6-methylphenanthridin-5(6H)-yl)sulfonyl]phenol] | 92 | 357 | 237 to 239 | < 35 | – |
